Data on six molecules can be found in ChEMBL document CHEMBL6109168, “Novel Compounds as 5-HT2A Receptor Modulators for Treating Psychiatric and Neurological Disorders” (ACS Med Chem Lett, 2025).

The target in the experiment is 5-hydroxytryptamine receptor 2A (Homo sapiens, UniProt P28223). Description: Agonist activity at human 5HT2A receptor expressed in HEK293 cells assessed as IP1 accumulation by HTRF assay. The class given is functional, cell-based.
Sequence of 5-hydroxytryptamine receptor 2A (P28223 whole entry): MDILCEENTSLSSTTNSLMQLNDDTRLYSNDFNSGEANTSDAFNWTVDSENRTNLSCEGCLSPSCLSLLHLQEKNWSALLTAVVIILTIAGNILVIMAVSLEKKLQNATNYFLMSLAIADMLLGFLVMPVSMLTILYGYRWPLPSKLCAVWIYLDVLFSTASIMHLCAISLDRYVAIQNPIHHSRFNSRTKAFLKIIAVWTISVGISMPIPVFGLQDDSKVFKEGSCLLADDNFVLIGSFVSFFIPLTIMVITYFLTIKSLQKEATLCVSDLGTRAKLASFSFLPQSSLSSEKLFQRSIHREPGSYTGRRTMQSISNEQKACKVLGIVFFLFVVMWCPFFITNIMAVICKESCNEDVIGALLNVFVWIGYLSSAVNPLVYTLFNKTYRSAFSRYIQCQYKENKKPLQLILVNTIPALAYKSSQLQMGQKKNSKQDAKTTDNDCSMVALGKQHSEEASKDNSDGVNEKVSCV
Turning to `N#Cc1c(F)ccc2c(C3=CCCNC3)c[nH]c12`, the EC50 is < 100 nM.
On to `C1=C(c2csc3ccccc23)CNCC1`, for which the EC50 is < 100 nM.
Consider `N#Cc1cc(F)cc2c(C3=CCCNC3)c[nH]c12`, for which the EC50 was < 100 nM.
For the molecule `Oc1cccc2[nH]cc(C3=CCCNC3)c12`, the EC50 was < 100 nM.
`Fc1ccc2c(C3=CCCNC3)n[nH]c2c1F`: the concentration for a half-maximal effect (EC50) is < 100 nM.
In the case of `COc1cc(Cl)c2[nH]cc(C3=CCCNC3)c2c1`, the EC50 is < 100 nM.

The EC50 is the concentration at which the effect is half-maximal.
